Laboratory results reported in US8507494B2, “Heterocyclic quinolizine derived M1 receptor positive allosteric modulators” (Merck Sharp & Dohme Corp., priority 2010, dated 2013).

Target: T1, acetylcholine muscarinic M1 receptor (Homo sapiens, UniProt P11229)
T1 construct: expressed in transfected cells; host or cells: CHOnfat cells (CHOnfat/hM1)
T1 sequence (P11229 1-460): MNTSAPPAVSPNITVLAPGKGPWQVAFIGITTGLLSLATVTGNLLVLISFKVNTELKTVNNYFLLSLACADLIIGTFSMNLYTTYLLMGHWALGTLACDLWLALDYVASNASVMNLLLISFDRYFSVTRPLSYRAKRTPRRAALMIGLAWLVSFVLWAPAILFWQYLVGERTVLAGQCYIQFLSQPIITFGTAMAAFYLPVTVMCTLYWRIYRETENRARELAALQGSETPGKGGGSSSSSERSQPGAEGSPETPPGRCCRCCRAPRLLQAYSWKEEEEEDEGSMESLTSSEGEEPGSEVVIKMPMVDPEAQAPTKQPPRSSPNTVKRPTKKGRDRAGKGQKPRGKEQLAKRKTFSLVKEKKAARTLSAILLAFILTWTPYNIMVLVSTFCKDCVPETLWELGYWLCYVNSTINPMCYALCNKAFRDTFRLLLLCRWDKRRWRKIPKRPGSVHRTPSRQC
Experiment: FLIPR intracellular calcium assay for M1 receptor positive allosteric modulator activity
Type: cell-based
Conditions: inflection point from FLIPR values; CHOnfat/hM1 cells; 4 min preincubation, then EC20 acetylcholine (3 nM final); read-out: M1 IP Value
Experimental: The assay studies the effect of one or several concentrations of test compounds on basal or acetylcholine-stimulated Ca^2+ levels using FLIPR.
Compounds are prepared and subjected to a preincubation period of 4 min. Thereafter, a single EC20 concentration of acetylcholine is added to each well (3 nM final). The intracellular Ca^2+ level of each sample is measured and compared to an acetylcholine control to determine any modulatory activity.
Cells: CHOnfat/hM1, hM2, hM3 or hM4 cells are plated 24 hr before the assay at a density of 18,000 cells/well (100 μL) in a 384 well plate. CHOnfat/hM1 and CHOnfat/hM3 Growth Medium: 90% DMEM (Hi Glucose); 10% HI FBS; 2 mM L-glutamine; 0.1 mM NEAA; Pen-Strep; and […] Geneticin, are added. For M2Gqi5CHOnfat and M4Gqi5CHOnfat cells, an additional 600 ug/ml hygromycin is added.
Equipment: 384 well plate, 120 μL addition plate; 96-well Whatman 2 ml Uniplate Incubator, 37° C., 5% CO2; Skatron EMBLA-384 Plate Washer; Multimek Pipetting System; Genesis Freedom 200 System; Mosquito System; Temo Nanolitre Pipetting System; and FLIPR^384 Fluorometric Imaging Plate Reader System are used.
Buffers. […]
After 60 min, the cells are washed three times with 100 μL of buffer, leaving 30 μL of buffer in each well. […] A signal test to check background fluorescence and basal fluorescence signal is performed. […]

| SMILES | EC50 [nM] |
| --- | --- |
| Cc1ccnc(C2(C#N)CCN(Cc3cc4c(=O)n(-c5ccccc5F)nc-4n4ccccc34)CC2)c1 [Example 1, 1-{[2-(2-Fluorophenyl)-3-oxo-2,3-dihydropyrazolo[4,3-c]quinolizin-5-yl]methyl}-4-(4-methylpyridin-2-yl)piperidine-4-carbonitrile] | 175 |
| Cn1cc(N2CCN(Cc3cc4c(=O)n(-c5ccccc5F)nc-4n4ccccc34)CC2=O)cn1 [Example 2, 2-(2-Fluorophenyl)-5-{[4-(1-methyl-1H-pyrazol-4-yl)-3-oxopiperazin-1-yl]methyl}pyrazolo[4,3-c]quinolizin-3(2H)-one] | 322 |
